ChEMBL document CHEMBL5303573, “Mapping human microbiome drug metabolism by gut bacteria and their genes” (Nature, 2019)

Assays:
[1] = The drug is tested on Bifidobacterium ruminantium strain: fecal isolate for biotransformation. The drug concentrations were measured before and after a 12-h incubation by liquid-chromatography-coupled mass spectrometry (LC–MS); conditions: 2 µM
[2] = The drug is tested on Alistipes indistinctus strain: DSM22520 for biotransformation. The drug concentrations were measured before and after a 12-h incubation by liquid-chromatography-coupled mass spectrometry (LC–MS); conditions: 2 µM
[3] = The drug is tested on Bacteroides finegoldii strain: DSM17565 for biotransformation. The drug concentrations were measured before and after a 12-h incubation by liquid-chromatography-coupled mass spectrometry (LC–MS); conditions: 2 µM
[4] = The drug is tested on Bacteroides fragilis strain: HMW615 for biotransformation. The drug concentrations were measured before and after a 12-h incubation by liquid-chromatography-coupled mass spectrometry (LC–MS); conditions: 2 µM
[5] = The drug is tested on Bacteroides fragilis strain: ATCC43859 for biotransformation. The drug concentrations were measured before and after a 12-h incubation by liquid-chromatography-coupled mass spectrometry (LC–MS); conditions: 2 µM
[6] = The drug is tested on Odoribacter splanchnicus strain: fecal isolate for biotransformation. The drug concentrations were measured before and after a 12-h incubation by liquid-chromatography-coupled mass spectrometry (LC–MS); conditions: 2 µM
[7] = The drug is tested on Parabacteroides merdae strain: ATCC43184 for biotransformation. The drug concentrations were measured before and after a 12-h incubation by liquid-chromatography-coupled mass spectrometry (LC–MS); conditions: 2 µM
[8] = The drug is tested on Clostridium ramosum strain: DSM1402 for biotransformation. The drug concentrations were measured before and after a 12-h incubation by liquid-chromatography-coupled mass spectrometry (LC–MS); conditions: thomasclavelia ramosa, 2 µM
[9] = The drug is tested on Clostridium symbiosum strain: ATCC14940 for biotransformation. The drug concentrations were measured before and after a 12-h incubation by liquid-chromatography-coupled mass spectrometry (LC–MS); conditions: 2 µM
[10] = The drug is tested on Eubacterium hallii strain: DSM3353 for biotransformation. The drug concentrations were measured before and after a 12-h incubation by liquid-chromatography-coupled mass spectrometry (LC–MS); conditions: anaerobutyricum hallii, 2 µM
[11] = The drug is tested on Eubacterium rectale strain: ATCC33656 for biotransformation. The drug concentrations were measured before and after a 12-h incubation by liquid-chromatography-coupled mass spectrometry (LC–MS); conditions: agathobacter rectalis, 2 µM
[12] = The drug is tested on Eubacterium ventriosum strain: ATCC27560 for biotransformation. The drug concentrations were measured before and after a 12-h incubation by liquid-chromatography-coupled mass spectrometry (LC–MS); assay type: ADME; set-up: dose 2 uM, timepoint 0 vs 12 hours; conditions: 2 µM
[13] = The drug is tested on Edwardsiella tarda strain: ATCC23685 for biotransformation. The drug concentrations were measured before and after a 12-h incubation by liquid-chromatography-coupled mass spectrometry (LC–MS); conditions: 2 µM
[14] = bacteroides fragilis, 12 h, 2 µM
Description: The drug is tested on Bacteroides fragilis strain: NCTC 9343 for biotransformation. The drug concentrations were measured before and after a 12-h incubation by liquid-chromatography-coupled mass spectrometry (LC–MS)

[15] = bacteroides fragilis, 12 h, 2 µM; remark: listed apart in the source
Description: The drug is tested on Bacteroides fragilis strain: DS-208 for biotransformation. The drug concentrations were measured before and after a 12-h incubation by liquid-chromatography-coupled mass spectrometry (LC–MS)

[16] = bacteroides intestinalis, 12 h, 2 µM
Description: The drug is tested on Bacteroides intestinalis strain: DSM17393 for biotransformation. The drug concentrations were measured before and after a 12-h incubation by liquid-chromatography-coupled mass spectrometry (LC–MS)

[17] = bacteroides stercoris, 12 h, 2 µM
Description: The drug is tested on Bacteroides stercoris strain: ATCC43183 for biotransformation. The drug concentrations were measured before and after a 12-h incubation by liquid-chromatography-coupled mass spectrometry (LC–MS)

[18] = parabacteroides johnsonii, 12 h, 2 µM
Description: The drug is tested on Parabacteroides johnsonii strain: DSM18315 for biotransformation. The drug concentrations were measured before and after a 12-h incubation by liquid-chromatography-coupled mass spectrometry (LC–MS)

[19] = bacteroides thetaiotaomicron, 12 h, 2 µM
Description: The drug is tested on Bacteroides thetaiotaomicron strain: VPI-5482 for biotransformation. The drug concentrations were measured before and after a 12-h incubation by liquid-chromatography-coupled mass spectrometry (LC–MS)

[20] = roseburia intestinalis, 12 h, 2 µM
Description: The drug is tested on Roseburia intestinalis strain: L1-82 for biotransformation. The drug concentrations were measured before and after a 12-h incubation by liquid-chromatography-coupled mass spectrometry (LC–MS)

| Bacterial Biotransformation [1] | Bacterial Biotransformation [2] | Bacterial Biotransformation [3] | Bacterial Biotransformation [4] | Bacterial Biotransformation [5] | Bacterial Biotransformation [6] | Bacterial Biotransformation [7] | Bacterial Biotransformation [8] | Bacterial Biotransformation [9] | Bacterial Biotransformation [10] | Bacterial Biotransformation [11] | Bacterial Biotransformation [12] | Bacterial Biotransformation [13] | Bacterial Biotransformation [14] | Bacterial Biotransformation [15] | Bacterial Biotransformation [16] | Bacterial Biotransformation [17] | Bacterial Biotransformation [18] | Bacterial Biotransformation [19] | Bacterial Biotransformation [20] | SMILES |
| --- | --- | --- | --- | --- | --- | --- | --- | --- | --- | --- | --- | --- | --- | --- | --- | --- | --- | --- | --- | --- |
| Compound NOT metabolized | Compound NOT metabolized | Compound metabolized | Compound metabolized | Compound metabolized | Compound metabolized | Compound NOT metabolized | Compound NOT metabolized | Compound NOT metabolized | Compound NOT metabolized | Compound NOT metabolized | Compound NOT metabolized | Compound NOT metabolized | Compound NOT metabolized | Compound metabolized | Compound metabolized | Compound NOT metabolized | Compound NOT metabolized | – | – | CCCCC(=O)N(Cc1ccc(-c2ccccc2-c2nnn[nH]2)cc1)[C@H](C(=O)O)C(C)C |
| Compound metabolized | Compound NOT metabolized | Compound metabolized | Compound metabolized | Compound metabolized | Compound metabolized | Compound metabolized | Compound NOT metabolized | Compound NOT metabolized | Compound NOT metabolized | Compound NOT metabolized | Compound NOT metabolized | Compound metabolized | Compound metabolized | – | – | – | Compound metabolized | – | – | CCCCc1nc(Cl)c(CO)n1Cc1ccc(-c2ccccc2-c2nn[nH]n2)cc1 [LOSARTAN] |
| Compound NOT metabolized | Compound NOT metabolized | Compound NOT metabolized | Compound NOT metabolized | Compound NOT metabolized | Compound metabolized | Compound NOT metabolized | Compound NOT metabolized | Compound NOT metabolized | Compound NOT metabolized | Compound NOT metabolized | – | Compound NOT metabolized | – | Compound metabolized | Compound NOT metabolized | Compound NOT metabolized | Compound NOT metabolized | Compound NOT metabolized | Compound NOT metabolized | CC(=O)O[C@H]1C(=O)[C@@]2(C)[C@H]([C@H](OC(=O)c3ccccc3)[C@]3(O)C[C@H](OC(=O)[C@H](O)[C@@H](NC(=O)c4ccccc4)c4ccccc4)C(C)=C1C3(C)C)[C@]1(OC(C)=O)CO[C@@H]1C[C@@H]2O [PACLITAXEL] |
| Compound NOT metabolized | Compound NOT metabolized | – | Compound NOT metabolized | Compound NOT metabolized | – | Compound NOT metabolized | Compound NOT metabolized | – | Compound NOT metabolized | Compound NOT metabolized | – | Compound NOT metabolized | Compound NOT metabolized | Compound NOT metabolized | Compound NOT metabolized | Compound NOT metabolized | Compound NOT metabolized | Compound NOT metabolized | Compound NOT metabolized | COC(=O)[C@H]1[C@H]2C[C@@H]3c4[nH]c5cc(OC)ccc5c4CCN3C[C@H]2C[C@@H](OC(=O)c2cc(OC)c(OC)c(OC)c2)[C@@H]1OC [RESERPINE] |
